Experimental data from the NIST ThermoML archive (doi:10.1021/je801009z).
“And” between values parts separate entries of the source, which are not always exact repeats. Identical values can stand only once. ± gives the expanded uncertainty stated by the source.

Details: Vibrating tube method

mass density (308 K, 20000 kPa, Fluid (supercritical or subcritical phases)) [kg/m3]	mass density (313 K, 10000 kPa, Fluid (supercritical or subcritical phases)) [kg/m3]	mass density (313 K, 15000 kPa, Fluid (supercritical or subcritical phases)) [kg/m3]	mass density (313 K, 20000 kPa, Fluid (supercritical or subcritical phases))	mass density (313 K, 25000 kPa, Fluid (supercritical or subcritical phases)) [kg/m3]	mass density (313 K, 36000 kPa, Fluid (supercritical or subcritical phases)) [kg/m3]	mass density (318 K, 20000 kPa, Fluid (supercritical or subcritical phases)) [kg/m3]	mass density (323 K, 20000 kPa, Fluid (supercritical or subcritical phases)) [kg/m3]	mass density (328 K, 20000 kPa, Fluid (supercritical or subcritical phases)) [kg/m3]	mass density (333 K, 20000 kPa, Fluid (supercritical or subcritical phases)) [kg/m3]	SMILES	mass density (288 K, 19600 kPa, Liquid) [kg/m3]	mass density (298 K, 19600 kPa, Liquid) [kg/m3]	mass density (308 K, 5000 kPa, Liquid) [kg/m3]	mass density (308 K, 10100 kPa, Liquid) [kg/m3]	mass density (308 K, 15400 kPa, Liquid) [kg/m3]	mass density (308 K, 19600 kPa, Liquid)	mass density (308 K, 23700 kPa, Liquid) [kg/m3]	mass density (318 K, 19600 kPa, Liquid) [kg/m3]	mass density (328 K, 19600 kPa, Liquid) [kg/m3]
										FCC(F)(F)F [1,1,1,2-tetrafluoroethane]	1290 ± 120	1270 ± 60	1150 ± 100	1180 ± 60	1210 ± 10	1240 ± 10 kg/m3 and 1240 ± 60 kg/m3	1260 ± 100	1210 ± 60	1180 ± 120
870 ± 120	570	780 ± 20	850 ± 80 kg/m3 and 830 ± 60 kg/m3	890 ± 180	900 ± 200	820 ± 20	790 ± 20	760 ± 80	730 ± 140	O=C=O [carbon dioxide]									
